Assays:
Type in all cases: in vivo
Details in all cases: active ingredient amount 31 g/ha, 14th day after application
[1] = tested on: wild oat (Avena fatua L.); assay: Test Example 1: foliar treatment, growth inhibition rate on 14th day
Outline: (§1)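 Plants in upland soil were sprayed on the foliage at early leaf stages (wild oat 0.4–1.2, rice 0.2–2.7, green foxtail 0.5–3.2, soybean primary leaf) with wettable powder or emulsifiable concentrate formulations. Spray volume was 1,000 L/ha water containing 0.1 vol% spreader, at prescribed active-ingredient rates. Growth inhibition (0 = untreated, 100 = complete kill) was scored visually on day 14.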

corn (Zea mays L.) [2] = assay: as above
Outline: (§2)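 Visual 0–100% inhibition scoring (100 = complete kill) at 14 days after foliar treatment of soil-grown seedlings at species-specific leaf stages, with the compound sprayed as a wettable powder or emulsifiable concentrate dilution.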

[3] = tested on: crabgrass (Digitaria sanquinalis L.); assay: as above
Outline: as §2

[4] = tested on: italian ryegrass (Lolium multiflorum Lam.); assay: as above
Outline: as §2

rice (Oryza sativa L.) [5] = assay: as above
Outline: as §1

[6] = tested on: soybean (Glycine max Merr.); assay: as above
Outline: as §1

[7] = tested on: barnyardgrass (Echinochloa crus-qalli L.); assay: as above
Outline: as §2

[8] = tested on: wheat (Triticum aestivum L.); assay: as above
Outline: as §2

[9] = tested on: redroot pigweed (Amaranthus retroflexus L.); assay: as above
Outline: as §2

[10] = tested on: green foxtail (Setaria viridis L.); assay: as above
Outline: as §1

corn (Zea mays L.) [11] = assay: Test Example 2: soil application on the day after sowing, growth inhibition rate on 14th day
Outline: (§3)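 Pre-emergence soil spray on upland soil the day after sowing; wettable powder or emulsifiable concentrate diluted in water at 1,000 L/ha, dosed to prescribed active-ingredient amounts. Visual growth inhibition scored 14 days after application, 0 (untreated-equivalent) to 100 (complete kill).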

[12] = tested on: prickly sida (Sida spinosa L.); assay: as above
Outline: as §3

[13] = tested on: crabgrass (Digitaris sanquinalis L.); assay: as above
Outline: as §3

rice (Oryza sativa L.) [14] = assay: as above
Outline: as §3

[15] = tested on: soybean (Glycine max Merr.); assay: as above
Outline: as §3

[16] = tested on: barnyardgrass (Echinochloa crus-qalli L.); assay: as above
Outline: as §3

[17] = tested on: wheat (Triticum aestivum L.); assay: as above
Outline: as §3

[18] = tested on: redroot pigweed (Amaranthus retroflexus L.); assay: as above
Outline: as §3

[19] = tested on: velvetleaf (Abutilon theophrasti MEDIC.); assay: as above
Outline: as §3

[20] = tested on: green foxtail (Setaria viridis L.); assay: as above
Outline: as §3

SMILES	Growth inhibition rate (%) Wild oat [1] [%]	Growth inhibition rate (%) Corn (corn (Zea mays L.) [2]) [%]	Growth inhibition rate (%) Crabgrass [3] [%]	Growth inhibition rate (%) Italian ryegrass [4] [%]	Growth inhibition rate (%) Rice (rice (Oryza sativa L.) [5]) [%]	Growth inhibition rate (%) Soybean [6] [%]	Growth inhibition rate (%) Barnyardgrass [7] [%]	Growth inhibition rate (%) Wheat [8] [%]	Growth inhibition rate (%) Redroot pigweed [9] [%]	Growth inhibition rate (%) Green foxtail [10] [%]	Growth inhibition rate (%) Corn (corn (Zea mays L.) [11]) [%]	Growth inhibition rate (%) Prickly sida [12] [%]	Growth inhibition rate (%) Crabgrass [13] [%]	Growth inhibition rate (%) Rice (rice (Oryza sativa L.) [14]) [%]	Growth inhibition rate (%) Soybean [15] [%]	Growth inhibition rate (%) Barnyardgrass [16] [%]	Growth inhibition rate (%) Wheat [17] [%]	Growth inhibition rate (%) Redroot pigweed [18] [%]	Growth inhibition rate (%) Velvetleaf [19] [%]	Growth inhibition rate (%) Green foxtail [20] [%]
Cn1ncc(O)c(-c2cc(Oc3ncc(C(F)(F)F)cc3Cl)ccc2OC(F)(F)F)c1=O [1-162]	100	98	100	99	93	0	100	99	0	100	40	0	100	95	0	100	0	0	0	100
CC(=O)Oc1c(C)nn(C)c(=O)c1-c1cc(Oc2cc(C(F)(F)F)c(C(F)(F)F)cn2)ccc1C [Compound 2-126]	100	100	100	100	93	20	100	99	0	100	30	0	98	0	0	100	10	0	0	100
CCc1ccc(Oc2nc3ccc(Cl)cc3o2)cc1-c1c(OC(C)=O)cnn(C)c1=O [Compound 2-160]	100	100	100	100	100	30	100	99	0	100	0	50	99	0	0	100	0	95	0	100
CCc1ccc(Oc2nc3ccccc3o2)cc1-c1c(O)c(C)nn(C)c1=O [Compound 2-165]	0	35	70	0	25	25	100	0	0	88	0	0	98	70	0	99	0	0	0	99
CC(=O)Oc1c(C)nn(C)c(=O)c1-c1cc(Oc2ncc(C(F)(F)F)cc2Cl)c(C)cc1C [1-152]	100	90	99	99	85	30	100	88	0	100	10	0	35	0	10	80	0	0	0	85
Cc1ccc(Oc2nc3ccc(Cl)cc3o2)cc1-c1c(O)cnn(C)c1=O [Compound 2-163]	75	80	95	88	35	35	100	10	0	100	15	0	98	20	0	98	20	0	0	99
CCc1ccc(Sc2ncc(C(F)(F)F)cc2Cl)cc1-c1c(OC(C)=O)c(C)nn(C)c1=O [1-46]	100	98	100	99	80	0	100	98	30	100	0	0	90	30	0	80	30	0	0	99
Cc1ccc(Oc2ncc(C(F)(F)F)cc2Cl)cc1-c1c(OS(C)(=O)=O)c(C)nn(C)c1=O [1-62]	99	100	100	98	88	0	100	90	0	100	0	0	100	20	0	100	0	0	0	99
CC(=O)Oc1c(C)nn(C)c(=O)c1-c1cc(Oc2nc3ccc(Br)cc3s2)ccc1C [Compound 2-158]	65	0	93	65	60	0	100	93	0	98	10	0	70	0	0	80	0	0	0	95

— US10870638B2, “Pyridazinone compound or its salt, and herbicide containing it” (ISHIHARA SANGYO KAISHA, LTD., priority 2016, dated 2020)
